Measured values published in ChEMBL document CHEMBL1201862, “PubChem BioAssay data set” (2004).
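Test compounds were applied to cells in 96-well plates for 48 hours at 5 doses. Here, GI50 denotes the concentration required for 50% inhibition of growth.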 Active and inactive are the calls of the source. Rule as the data show it: active = GI50 up to about 1.1 µM and inactive = higher.

What was measured:
Assay in all cases: DTP human tumour cell line panel, 48 h
[1] = tested on: A498
[2] = tested on: A549
[3] = tested on: ACHN
[4] = tested on: CAKI-1
[5] = tested on: HOP-92
[6] = tested on: HT-29
[7] = tested on: IGROV-1
[8] = tested on: KM12
[9] = tested on: MDA-N
[10] = tested on: MOLT-4
[11] = tested on: NCI/ADR-RES
[12] = tested on: OVCAR-3
[13] = tested on: OVCAR-4
[14] = tested on: SF-268
[15] = tested on: SK-MEL-5
[16] = tested on: SW-620
[17] = tested on: UACC-257
[18] = tested on: NCI-H226
[19] = tested on: RXF 393

Measured: GI50

N#Cc1c(Nc2nc3ccccc3s2)c2ccccc2n2c1nc1ccccc12
inactive: [1] 89.5 µM | [2] > 100 µM | [3] 79.8 µM | [4] > 100 µM | [5] > 100 µM | [6] > 100 µM | [7] > 100 µM | [8] > 100 µM | [9] > 100 µM | [10] > 100 µM | [11] 72.4 µM | [12] > 100 µM | [13] > 100 µM | [14] > 100 µM | [15] > 100 µM | [16] > 100 µM | [17] > 100 µM

C=C1[C@@H]([C@@]2(C)C=CC(=O)C(C)(C)[C@@H]2CC(=O)OC)CC[C@@]2(C)[C@H](c3ccoc3)OC(=O)[C@H]3O[C@]132 [ANDIROBIN]
inactive: [1] 79.4 µM | [2] > 100 µM | [3] > 100 µM | [4] > 100 µM | [5] > 100 µM | [6] > 100 µM | [7] > 100 µM | [8] > 100 µM | [9] > 100 µM | [10] 83.6 µM | [18] > 100 µM | [11] > 100 µM | [12] > 100 µM | [13] > 100 µM | [14] > 100 µM | [15] 68.2 µM | [16] > 100 µM | [17] > 100 µM

Cc1[nH]c2ncn(N)c(=N)c2c1Cc1ccccc1
inactive: [1] > 100 µM | [2] 58.3 µM | [3] > 100 µM | [4] > 100 µM | [5] 6.7 µM | [6] 67.9 µM | [7] 80.4 µM | [8] > 100 µM | [9] 35.3 µM | [10] > 100 µM | [18] > 100 µM | [11] 82 µM | [12] > 100 µM | [13] > 100 µM | [15] 19.1 µM | [16] > 100 µM | [17] > 100 µM

CCC12CCCN(Cc3ccccc3)C1c1c([nH]c3ccccc13)C(C(=O)OC)C2 (stereo not given)
inactive: [2] > 10 µM | [3] > 10 µM | [4] > 10 µM | [5] > 10 µM | [6] 6.87 µM | [7] > 10 µM | [8] > 10 µM | [9] > 10 µM | [10] 5.85 µM | [11] > 10 µM | [12] > 10 µM | [13] > 10 µM | [14] > 10 µM | [15] > 10 µM | [16] > 10 µM | [17] > 10 µM

COc1ccc(N2C(=O)C3c4[nH]c5ccccc5c4C4CCC(C(C)C)CC4C3C2=O)cc1 (stereo not given)
inactive: [1] > 100 µM | [2] > 100 µM | [3] > 100 µM | [4] > 100 µM | [5] > 100 µM | [6] > 100 µM | [7] > 100 µM | [8] > 100 µM | [9] > 100 µM | [10] > 100 µM | [18] > 100 µM | [11] > 100 µM | [12] > 100 µM | [13] > 100 µM | [14] > 100 µM | [15] > 100 µM | [16] > 100 µM | [17] > 100 µM

S=C1Nc2cnc3ccccc3c2SC1c1ccccc1 (stereo not given)
inactive: [2] > 100 µM | [3] > 100 µM | [4] > 100 µM | [6] > 100 µM | [7] > 100 µM | [8] > 100 µM | [9] > 100 µM | [10] > 100 µM | [18] > 100 µM | [11] > 100 µM | [12] > 100 µM | [13] > 100 µM | [19] 13 µM | [14] > 100 µM | [15] > 100 µM | [17] > 100 µM

CC1OC(=O)c2ccccc2NC1=O (stereo not given)
inactive: [1] > 100 µM | [2] > 100 µM | [3] > 100 µM | [4] > 100 µM | [5] > 100 µM | [6] > 100 µM | [7] > 100 µM | [8] > 100 µM | [10] > 100 µM | [18] > 100 µM | [11] > 100 µM | [12] > 100 µM | [13] > 100 µM | [19] > 100 µM | [14] > 100 µM | [15] > 100 µM | [16] > 100 µM | [17] > 100 µM

CC(=O)OC12C3C4C1C1C2C3C41OC(C)=O (stereo not given)
inactive: [1] > 100 µM | [2] > 100 µM | [3] > 100 µM | [4] > 100 µM | [5] > 100 µM | [6] > 100 µM | [7] > 100 µM | [8] > 100 µM | [10] > 100 µM | [18] > 100 µM | [11] > 100 µM | [12] > 100 µM | [13] > 100 µM | [19] > 100 µM | [14] > 100 µM | [15] > 100 µM | [16] > 100 µM | [17] > 100 µM

COc1c(-c2nc3ccc(N4CCN(C)CC4)nc3[nH]2)cc(OC)c2c1nc(CO)n2C
inactive: [2] > 100 µM | [3] > 100 µM | [4] > 100 µM | [5] > 100 µM | [6] > 100 µM | [7] > 100 µM | [8] > 100 µM | [9] > 100 µM | [10] > 100 µM | [18] > 100 µM | [11] > 100 µM | [12] > 100 µM | [13] > 100 µM | [19] > 100 µM | [14] > 100 µM | [16] > 100 µM | [17] > 100 µM

COc1cc2ccc(C(=O)NCCCNC(=O)c3ccc4cc(OC)c(OC)cc4c3)cc2cc1OC
inactive: [1] > 100 µM | [2] > 100 µM | [3] > 100 µM | [4] > 100 µM | [5] > 100 µM | [6] > 100 µM | [7] > 100 µM | [8] > 100 µM | [9] > 100 µM | [18] > 100 µM | [11] > 100 µM | [12] > 100 µM | [13] 57.8 µM | [14] > 100 µM | [15] > 100 µM | [16] > 100 µM | [17] > 100 µM

O=C1/C(=C\c2ccc([N+](=O)[O-])cc2)Sc2scc(-c3ccc(O)c(O)c3)[n+]21
inactive: [1] > 10 µM | [2] 17.6 µM | [3] 6.82 µM | [4] 2.77 µM | [5] 6.4 µM | [6] 3.31 µM | [7] 5.11 µM | [8] 10.9 µM | [9] 5.41 µM | [10] 2.62 µM | [18] 17.8 µM | [11] 4.84 µM | [12] 2.51 µM | [13] 10.6 µM | [14] 4.94 µM | [15] 3.87 µM | [16] 3.4 µM | [17] 6.87 µM
